The structures appear in SMILES notation. Numbered stars: 1 amine (or outer) side, 2 acyl side, 3 side chain; on linkers, the order of the positions; unused ones are H or OH. Bridge positions count the residues as written; N and C are the ends. Square brackets hold non-standard residues; d marks the D form. Peptide text beside a SMILES is read from it. ξ: configuration not given here. ξαMeNle(6-ylidene) = CC(CCCC=[*:3])(N[*:1])C(=O)[*:2]; X1 = CC(CCCCCCC=[*:3])(N[*:1])C(=O)[*:2]

In general, EC50 refers to the concentration that produces a half-maximal response. A higher EC50 goes with a less potent agent. The viability is a read-out of living cells in per cent, often relative to untreated cells.

Common to all, as to assay type: cell-based
Series [1] relates to NCI-H510A. To be noted: 72 h. As to the method: (§1) NCI-510A, epithelial (small cell lung cancer, SCLC), ATCC-HBT-124; and Hepatocytes (normal liver), from a donor was provided by Foundation DTI-Donation & Transplantation Institute from surgical wastes and from organs not suitable for transplantation
Cell line MCF-7 was cultured in incubator under CO2 (6%) at 37° C. in DMEM high glucose (Dulbecco's Modified Eagle Solution, Gibco-BRL 31966-21) medium with 10% fetal bovine serum inactivated (FBS) (Gibco-BRL 10106-169). Cell lines HL-60, NCI-H524, NCI-H526, NCI-H69, NCI-H82, NCI-H187 and H5B were cultured in an incubator at 37° C. in RPMI-1640 (Sigma R8758) medium with 10% of fetal bovine serum inactivated (FBS) and 2 mM glutamine (Sigma G7513). Cell line NCI-H510A was cultured in incubator in F12K medium with 10% of fetal bovine serum inactivated (FBS). Cell line GBM-18 and GBM-27 were cultured in incubator under CO2 (6%) at 37° C. in complete medium (Neurobasal+B27+Glutamax+Growth factors).
During the amplification step and the assays, adherent cells were rinsed with DPBS (Dulbecco's Phosphate Buffered Saline, Sigma D1283) three times and afterward treated for 5 minutes with trypsin ([…]) (Gibco-BRL, 15400054) in solution of DPBS at 37° C., and, once detached, transferred in the culturing medium. No-adherent cells were centrifuged and transferred in the culturing medium. Cells were counted in a Neubauer chamber after labelling with Tripan-Blue.
MCF-7, NCI-H187, NCI-H69, NCI-H526 and H5B cells were seeded at a density of 5000 cells/well; NCI-H524 and NCI-H82 were seeded at a density of 2500 cells/well; HL-60 and NCI-H510A at 10000 cells/well in 100 μl of medium in 96 well plates. After 24 h, the compounds to be tested were added to calculate the dose/response curve at the starting concentration of 100 μM with serial dilutions (1:1). Controls were the untreated cells. Each experiment was performed in triplicate.
Cells were incubated during 72 h in incubator under CO2 atmosphere at 37° C. Cell viability was measured by means of MTT (3-(4,5-dimethylthiazol-2-yl)-2,5-diphenyltetrazolium bromide) assay, Alamar Blue® (Biosource DAL1100) and Hexosaminidase activity test, consecutively, following manufacturer instructions.
MTT: 1. Stock solution of MTT (475989 Calbiochem) was 5 mg/ml in PBS 1×. As negative control (experiment noise) 3 wells were treated with 20 μl/well of a solution of SDS 10% in H2O. The same control was used for Alamar Blue/Hexosaminidase. 10 μl/well of MTT solution were added and the plate was incubated for 3-4 hr. The medium was discarded and 100 μl of extracting buffer (PBS 1×, 15% SDS, 50% […] N,N-Dimethylformamide, pH 4,7) were added to each well. Plates were incubated for 16 h at room temperature under orbital shaking. Absorbance at 570 nm was finally measured.
Alamar Blue: 10 μl Alamar Blue solution was added to each well and the plates were incubated for […] in the incubator. Fluorescence ratio at 535/590 (excitation/emission) was measured in Cytofluor (Millipore) fluorimeter. Blank control was determined by lysis of untreated cells with con 2% of Triton X100, right before adding Alamar Blue solution.
Hexosaminidase activity test: after Alamar Blue lecture, medium was discarded and plates were rinsed once with PBS. 60 μl hexosaminidase substrate (p-nitrophenol-N-acetyl-beta-D-glucosamide 7.5 mM [Sigma N-9376], sodium citrate 0.1 M, pH 5.0, 0.25% Triton X-100) was added to each well and the plates were incubated at 37° C. for 2-5 h, according to the cell type (hexosaminidase activity changes according to the cell type). […] Blank control was the same as described before.
Data analysis was performed calculating the percentage of cell viability normalized vs. the values of negative control, which was considered equal to 100%. The dose/response curve was fitted through the sigmoidal equation dose-response (variable slope) and the EC50 values were calculated as follow: Y=Bottom+(Top−Bottom)/(1+10^{[(Log EC50−X)*HillSlope]},

In series [2] the test system is Human hepatocytes. The series is described as follows: Hepatotoxicity assay, trypan blue exclusion, 24 h. To be noted: dose of 4 and 14 μM.
Excerpt: as §1
(§2) Human liver from a donor was subjected to hepatocyte isolation by using a two-step tissue microperfusion technique taking maximum care to avoid anoxia before cannulation, since hepatocytes are cells highly sensitive to oxygen levels. An initial anoxic state could result in a low viability of the cells, and will later affect their metabolic capacity in the culture. Briefly, liver tissue was cannulated by using the accessible vessels with a 1 mm-diameter needle. A balanced salt solution was injected to clean the organ by using a peristaltic pump adjusted to a flow rate of 18-20 ml/min. After washing, a solution containing collagenase was added for liver disintegration. The cell suspension obtained using this process was filtered and centrifuged and, after a couple of washings to remove collagenase, cells were re-suspended in culture medium Ham's F-12/William (1:1) medium supplemented with 2 mM glutamine, […] sodium selenite, 2% newborn calf serum, 50 mU/ml penicillin, 50 μg/ml streptomycin, 0.1% bovine serum albumin, 1.68 mM NAME, 26 mM sodium bicarbonate, 25 μg/ml transferrin, 65.5 μM ethanolamine, 7.2 μM linoleic acid, 17.5 mM glucose, 6.14 mM ascorbic acid and 10 nM insulin.
(§3) After resuspension, a cell aliquot was removed and viability was determined by cell counting using the trypan blue exclusion method. Trypan blue uptake is the result of cell membrane alteration and in consequence of cell death. Thus, to quantify cell viability, 0.4% trypan blue in saline was added to the cells and these were immediately loaded in a Neubauer chamber. Viable cells were counted in 5 different fields under the optical microscope as non-blue cells. % Viability=Number of non-blue cells×100/Number of total cells Viability and Hepatoxicity Assay
(§4) Human hepatocytes isolated and re-suspended as described before were seeded at 100,000 viable cells/well on 96 collagen-coated plates in order to assess compound's cytotoxicity. After 1 hour in culture, medium was renewed to eliminate cell debris. Cultured human hepatocytes were allowed to stay in culture for 24 hours prior performing the experiments. After 24 h, the compounds to be tested were added to calculate the dose/response curve at the starting concentration of 400 μM with serial dilutions. Each experiment was performed in triplicate. Cells were incubated during 24 h in incubator under CO2 atmosphere at 37° C.
(§5) The viability was determined by cell counting using the trypan blue exclusion method. % Viability=Number of non-blue cells×100/Number of total cells Statistics

A short description of series [3]: Hepatotoxicity assay, trypan blue exclusion, 24 h. To be noted: female, primary human hepatocytes, human hepatocytes, 24 h.
Excerpt: as §1, §2, §3, §4, §5

`CC(C)C[C@H](NC(=O)[C@H](CCCCN)NC(=O)[C@@H](NC(=O)[C@@H](N)CCCNC(=N)N)C(C)C)C(=O)N[C@H](C(=O)N[C@@H](CC(N)=O)C(=O)N[C@@H](CC(C)C)C(=O)NC1(C)CCCCCCC=CCCCC(C)(C(=O)N[C@H](C(=O)N2CCC[C@H]2C(N)=O)C(C)C)NC(=O)[C@H](CCC(=O)O)NC(=O)[C@H](CCCNC(=N)N)NC(=O)[C@H](CC(C)C)NC(=O)[C@H]([C@@H](C)O)NC(=O)[C@H](C)NC(=O)[C@H](Cc2ccccc2)NC1=O)C(C)C` (stereo partly shown) [H14] (H-RVKLVNL[X1]FATLRE[ξαMeNle(6-ylidene)]VP-NH2; staple 8-15; N-terminus and C-terminus assumed) showed an EC50 in series [1] of roughly 12 µM. For the same compound, the “toxicity for normal hepatocytes (in words)” value in series [2] is “not toxic”. In series [3] (H14 4 μM), the viability at 24 h, 4 µM worked out at 113%. For the same compound, the viability at 24 h, 14 µM in series [3] (H14 14 μM) was 119%.
